Experiments:
Test in all cases: relative viability (nuclei count vs DMSO), 5 days (fraction); higher = more cells survive
[1] = compound: COc1cc2ncn(-c3cc(OCc4ccccc4C(F)(F)F)c(C(N)=O)s3)c2cc1OC + CCNC(=O)c1noc(-c2cc(C(C)C)c(O)cc2O)c1-c1ccc(CN2CCOCC2)cc1 [Luminespib] (partner 0.01 µM)
Outline: (§1)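 Relative viability is defined as nuclei in treated wells over nuclei in vehicle wells. Duplicate plates were run and medians reported. Lung cancer cell lines in 1536-well plates were dosed by pin tool one day after seeding, with one drug or with a fixed anchor-drug dose plus five library-drug doses (not always all listed) in √10 steps, and nuclei were counted after 5 days.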

[2] = compound: COc1cc2ncn(-c3cc(OCc4ccccc4C(F)(F)F)c(C(N)=O)s3)c2cc1OC + CC(C)C[C@H](NC(=O)[C@H](Cc1ccccc1)NC(=O)c1cnccn1)B(O)O [Bortezomib] (partner 0.002 µM)
Outline: as §1

[3] = compound: COc1cc2ncn(-c3cc(OCc4ccccc4C(F)(F)F)c(C(N)=O)s3)c2cc1OC + Cc1nc(Nc2ncc(C(=O)Nc3c(C)cccc3Cl)s2)cc(N2CCN(CCO)CC2)n1 [Dasatinib] (partner 0.075 µM)
Outline: as §1

[4] = compound: COc1cc2ncn(-c3cc(OCc4ccccc4C(F)(F)F)c(C(N)=O)s3)c2cc1OC + CC(=O)c1c(C)c2cnc(Nc3ccc(N4CCNCC4)cn3)nc2n(C2CCCC2)c1=O [Palbociclib] (partner 0.5 µM)
Outline: as §1

Cell Line	relative viability ([1]; first compound 0.05 µM)	relative viability ([1]; first compound 0.1581 µM)	relative viability ([1]; first compound 0.5 µM)	relative viability ([1]; first compound 1.581 µM)	relative viability ([1]; first compound 5 µM)	relative viability ([2]; first compound 0.05 µM)	relative viability ([2]; first compound 0.1581 µM)	relative viability ([2]; first compound 0.5 µM)	relative viability ([2]; first compound 1.581 µM)	relative viability ([2]; first compound 5 µM)	relative viability ([3]; first compound 0.05 µM)	relative viability ([3]; first compound 0.1581 µM)	relative viability ([3]; first compound 0.5 µM)	relative viability ([3]; first compound 1.581 µM)	relative viability ([3]; first compound 5 µM)	relative viability ([4]; first compound 0.05 µM)	relative viability ([4]; first compound 0.1581 µM)	relative viability ([4]; first compound 0.5 µM)	relative viability ([4]; first compound 1.581 µM)	relative viability ([4]; first compound 5 µM)
NCI-H727	0.396	0.311	0.334	0.291	0.31	1.05	0.835	0.583	0.317	0.381	0.383	0.349	0.362	0.225	0.329	0.701	0.716	0.608	0.547	0.628
NCI-H1993	0.756	0.8	0.548	0.463	0.448	1.09	1.13	0.874	0.618	0.516	0.649	0.555	0.528	0.503	0.424	0.512	0.67	0.561	0.513	0.431
NCI-H1437	1.16	0.969	0.53	0.244	0.159	0.526	0.38	0.145	0.148	0.107	0.412	0.356	0.322	0.162	0.104	0.3	0.279	0.253	0.206	0.192
201T	1.07	1.08	1	0.689	0.28	1.12	1.13	1.12	0.902	0.365	0.543	0.536	0.546	0.45	0.244	0.363	0.38	0.335	0.349	0.28
ChaGo-K-1	0.617	0.516	0.285	0.18	0.14	0.98	0.727	1.03	0.427	0.272	0.629	0.332	0.574	0.17	0.138	0.948	0.878	0.649	0.247	0.147
NCI-H1650	0.187	0.187	0.193	0.19	0.185	0.222	0.184	0.185	0.175	0.172	0.329	0.305	0.268	0.142	0.145	0.295	0.329	0.234	0.146	0.141
LOU-NH91	0.358	0.385	0.308	0.278	0.301	0.434	0.368	0.405	0.348	0.346	0.6	0.599	0.459	0.31	0.387	0.529	0.479	0.517	0.446	0.333
HOP-62	0.966	0.638	0.708	0.176	0.123	0.977	1.2	0.507	0.178	0.124	0.653	0.694	0.597	0.15	0.114	0.411	0.417	0.403	0.148	0.107

From the supplement of paper PMC10307832
